Assay results from US9688989B2, “H4 receptor inhibitors for treating tinnitus” (SENSORION, priority 2012, dated 2017).

Experiments:
[1] = test system: spiral ganglion neurons (SGNs) in semi-intact cochlea preparation; experiment: Loose-patch recordings of spontaneous action potentials in semi-intact cochlea preparation; assay type: cell-based, Wistar rats; settings: 100 μM bath application, within two minutes, two experiments
Method: For this preparation postnatal day (P) 10-14 Wistar rats were used. First steps of the protocol were similar to the cell culture one until the cochlea was freed from the cochlear bone. Cochlear turns (apical and middle) were dissected and isolated in sterile-filtered L-15 (Leibovitz) Medium. Explants were plated upside down (spiral ganglion neurons on top) on 10 μl of growth factor-reduced Matrigel (BD biosciences) and laminin (10 μg/ml)-coated glass coverslips. These preparations were first incubated for 30 min at 37° C. in a 95%/5% 02/CO2 atmosphere and then cultured for 2 to 5 days in vitro in (50%) F12/(50%) DMEM (Invitrogen) supplemented with (2%) N2 nutrient (Fisher Scientific). […]
All experiments were performed using an Axopatch 200B amplifier. […] Data were stored with PClamp10.2 software (Axon Instruments; Molecular Devices Corp., USA) and were analyzed off-line using Clampfit 10.2 (Molecular Devices) and Origin 8 (OriginLab) softwares.
The recording solution contained (in mM): NaCl 135, HEPES 10, glucose 10, MgCl2 1, KCl 5, and CaCl2 2.5, (pH 7.35). […] For these solutions a minor 3.7 mV liquid junction potential could be measured but membrane voltages were not corrected for it. […]
In these semi-intact cochlea preparations, spontaneous discharges of action potential were directly recorded. […] In vitro results were expressed as means±S.E.M. […]

[2] = test system: spiral ganglion neurons (SGNs); experiment: Whole-cell current-clamp recordings of step-evoked action potentials in dissociated spiral ganglion neurons; assay type: cell-based, Wistar rats; settings: for inhibition at 0.1 µM / inhibition at 100 µM: Rattus norvegicus, Neuron, read-out: inhibition of frequency of A.P firing; for inhibition at 0.1 µM / resting membrane potential, difference versus control: 100 nM; for amplitude of the first spike / frequency of spikes and amplitude of the first spike: transient spikers SGNs; for inhibition at 100 µM / amplitude of the first spike: 100 μM; for frequency of spikes and amplitude of the first spike: all concentration tested
Method: The head of 5-8 days old Wistar rats (CERJ, Le Genest, Berthevin, France) was hemi-sectioned aseptically and the cochlea dissected from the temporal bone. In L15 (Leibovitz) medium (Gibco) medium, the cochlear bone was gently removed using fine forceps to isolate the sensorineural tissue. The spiral ganglion was separated from the organ of Corti just before the habenula perforata, and enzymatically (collagenase 0.75 mg·mL^−1, dispase 1 mg·mL^−1 and DNAse 0.75 mg·mL^−1) dissociated for 15 min at 25° C. After washing thoroughly with a Tyrode's solution (Sigma), a transfer pipette was used to gently dissociate the ganglion neurons in culture medium (DMEM/F-12 medium 1:1, 2% N2 nutrient, 28 mM Glc, 1.5 mM Gln, 15 mM HEPES, 2 μM AraC, 10 ng mL-1 BDNF and 1% penicillin/streptomycin). The spiral ganglion neurons were plated onto culture dishes previously coated with 10 ug·mL-1 laminin (Sigma). These low density cultures were maintained at 37° C. in 5% CO2 for 3 to 5 days prior whole cell patch-clamp experiments.
Efficacy of H4R antagonist has been tested using two patch clamp technics: whole-cell current-clamp recordings with dissociated spiral ganglion neurons (SGNs) and loose-patch recordings for SGNs in semi-intact cochlea preparations. For these experiments postnatal day (P) 10-14 Wistar rats were used at DIV2-5.
All experiments were performed using an Axopatch 200B amplifier. Traces were low-pass filtered at 10-20 kHz, and digitized at 100 kHz with a Digidata 1440A board. Data were stored with PClamp10.2 software (Axon Instruments; Molecular Devices Corp., USA) and were analyzed off-line using Clampfit 10.2 (Molecular Devices) and Origin 8 (OriginLab) softwares.
The recording solution contained (in mM): NaCl 135, HEPES 10, glucose 10, MgCl2 1, KCl 5, and CaCl2 2.5, (pH 7.35). For whole-cell patch clamp recordings, recording glass pipettes (4-6 MΩ) were coated with Wax to reduce pipette capacitance and were filled with (in mM): KCl 135, HEPES 10, glucose 10, NaCl 5, EGTA 5, Mg-ATP 3, GTP-Na 1, pH 7.35. For these solutions a minor 3.7 mV liquid junction potential could be measured but membrane voltages were not corrected for it. The osmolarity of all solutions was adjusted to 300 mOsm/L. The control and test solutions were applied using a multiple capillary perfusion system (flow rate˜500 μl/min). After each application of the tested drug, the cells were washed with control buffer.
Recordings were performed at room temperature (RT; 22-25° C.). In dissociated neurons, a 150-200 pA DC square current (1 s duration) was applied every 6 s in order to elicit trains of action potentials. The pharmacological tests were conducted only when recordings presented the following criteria: series resistance (<10 MΩ on average) no more than 3 times the pipette resistance, stable resting membrane potential (R.M.P) negative to −40 mV, overshooting action potentials (magnitude >60 mV for the first action potential), stable firing for up to a minute in control condition.
Two concentrations have been tested: 100 μM and 100 nM.
Typically, in dissociated SGNs, (FIG. 2A1) small depolarizing current steps (0.1 nA-0.4 nA) evoked two types of action potential discharge: transient (no more than 1-2 spikes-rapidly adapting neurons) and sustained firing (number of spikes increasing linearly above threshold-slowly adapting neurons) (FIG. 2A2). Transient spikers SGNs represented the majority of neurons in our cell cultures (80% versus 20% of sustained spikers neurons).

[3] = test system: tinnitus induced by sodium salicylate or noise exposure; experiment: Gap-Prepulse Inhibition of Acoustic Startle (GPIAS) behavioral model of tinnitus; assay type: in vivo, adult rats; settings: rats, single i.p. administration, versus pre-treatment or vehicle
Method: The aim of these in vivo tests is to measure the efficacy of H4R antagonists to decrease (transient and permanent) tinnitus symptoms induced either by sodium salicylate or by high level noise exposure. Evaluation of efficacy is performed in adult rats using the tinnitus test developed by Turner et al. 2006: the Gap-Prepulse Inhibition of Acoustic Startle (GPIAS) behavioral model. This model uses a gap in a constant acoustic background as a pre-stimulus that reduces the acoustic startle reflex amplitude. Rats perceiving tinnitus in a specific frequency have decreased detection of gap embedded in bands similar to the tinnitus frequency. Reduction of the gating efficiency of the gap produces a larger acoustic startle (reduced GPIAS). The level of GPIAS is measured in baseline condition in a cohort of 6 to 8 adult rats. Tinnitus is induced by an i.p administration of sodium salicylate (250 mg/kg) and GPIAS is measured at […] post-induction to measure the reduction in GPIAS (attesting presence of tinnitus). Rats are treated with H4R antagonists (single i.p. administration) or with the vehicle the same day and GPIAS is measured at different time points according to the PK profile of the compounds Alternatively, tinnitus is induced by a unilateral exposure to a 12 kHz narrow band noise presented at 120-126 dB SPL (the contralateral ear is protected with an ear plug) for 2h. […]

[4] = target: T1, human H3 receptor (Homo sapiens, UniProt Q9Y5N1); settings: radioligand binding; cited from earlier work
T1 construct: expressed in transfected cells; host or cells: SK-N-MC or HEK293 T
T1 sequence (Q9Y5N1 whole entry): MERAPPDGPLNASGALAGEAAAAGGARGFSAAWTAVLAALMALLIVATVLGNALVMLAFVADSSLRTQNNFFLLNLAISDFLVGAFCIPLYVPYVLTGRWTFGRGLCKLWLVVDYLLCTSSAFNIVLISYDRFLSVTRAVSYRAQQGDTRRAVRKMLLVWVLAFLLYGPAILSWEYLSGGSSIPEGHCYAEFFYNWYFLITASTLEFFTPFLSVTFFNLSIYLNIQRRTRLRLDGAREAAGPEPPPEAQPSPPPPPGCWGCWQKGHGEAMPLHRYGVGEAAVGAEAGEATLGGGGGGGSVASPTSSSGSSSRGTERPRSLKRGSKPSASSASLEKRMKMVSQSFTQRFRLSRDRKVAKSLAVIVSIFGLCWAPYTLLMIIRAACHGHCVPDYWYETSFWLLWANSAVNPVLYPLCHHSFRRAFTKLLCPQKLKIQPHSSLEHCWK

SMILES	spontaneous (synaptically driven) action potential discharge [1]	inhibition at 0.1 µM ([2]; sustained SGNs)	inhibition at 100 µM ([2]; sustained SGNs)	resting membrane potential, difference versus control ([2]; sustained SGNs)	resting membrane potential, increase versus control ([2]; sustained SGNs, high concentration (100 μM))	amplitude of the first spike [2]	frequency of spikes and amplitude of the first spike [2]	GPIAS values [3]	Kd [4]
CN1CCN(C(=O)c2nc3cc(Cl)ccc3[nH]2)CC1 [JNJ10191584, 1-[(5-chloro-1H-benzimidazol-2-yl)carbonyl]-4-methylpiperazine]	fully abolished	25.2 ± 2%	46.2 ± 12%	−0.13±0.4 mV	1.5±1 mV	83.7±5.2 mV	unaffected	Increase	–
CNCCc1cnc[nH]1 [[^3H]N-a-methyl histamine]	–	–	–	–	–	–	–	–	1 nM
CN1CCN(C(=O)c2cc3cc(Cl)ccc3[nH]2)CC1 [JNJ7777120, 1-[(5-chloro-1H-indol-2-yl)carbonyl]-4-methylpiperazine]	–	21.6 ± 1.7%	69 ± 8%	0.55±0.2 mV	–	73.3±6.1 mV	unaffected	Increase	–
